“And” between values parts separate entries of the source, which are not always exact repeats. Equal values may be shown once. Marks after values point to notes of the source that are not given here. Where no end group is shown, it is not given here.
Tests used:
SOD in liver = test: Hepatic superoxide dismutase (SOD) activity; assay type: in vivo, Kunming mice; details: PC, metformin 150 mg/kg
Method: (§1) Fifty healthy adult male Kunming mice were purchased from Zhuhai Bestest Biotechnology Co., Ltd. The experiments were approved by the Animal Ethics Committee of Guangdong Ocean University with the approval number of GDOU-LAE-2021-002, approved on 6 April 2021. Before the experiment, all animals were watered and fed freely for 7 days. […] The groups were mixed with soluble starch (250 mg/kg) and gavaged synchronously for 3 d.

serum insulin = test: Effect of EHCA on serum insulin (INS); assay type: in vivo, Kunming mice; details: PC, metformin 150 mg/kg, mean ± SD, n = 10 mice
Method: as §1, with “3 d. […] Effects of EHCA on mice at the end of the test, blood was taken from the eyeballs of mice, which were executed in the decapitated position, and the organs were collected for subsequent experiments. […] (5) […] Where WISI is the insulin sensitivity index; WFPG is fasting blood glucose, mmol/[…] is fasting insulin content (μU/mL); and WFBCI is the insulin secretion index.” for “3 d.”

blood glucose = test: Effect of EHCA on blood glucose in normal mice (starch gavage); assay type: in vivo, Kunming mice
Method: as §1, with “3 d. […] Where G0 is the pre-dose fasting blood glucose value, mmol/L; […] Area under the curve (AUC) was calculated applying the following formula (Equation 4): (4) […]/4.” for “3 d.”

[1] = pH 7.4
α-glucosidase = α-glucosidase (Saccharomyces cerevisiae, UniProt P53341); details: cited from earlier work
From the text: Marine proteins have a novel amino acid composition, which is one of the important sources for the production of bioactive peptides ([11], [12]). There have been a number of studies on natural hypoglycemic active peptides from marine sources such as Trachurus trachurus, Euphausia superba, Chlorella vulgaris and Crassostrea gigas ([11], [13-15]). […] The molecular weight of protein hydrolysates is a determinant of their biological activity, and peptide fractions with low molecular weights are highly biologically active ([33]).

[2] = test system: glucose metabolizing enzyme; details: extracted from Spirulina; cited from earlier work
From the text: Marine proteins have a novel amino acid composition, which is one of the important sources for the production of bioactive peptides ([11], [12]). There have been a number of studies on natural hypoglycemic active peptides from marine sources such as Trachurus trachurus, Euphausia superba, Chlorella vulgaris and Crassostrea gigas ([11], [13–15]).

Chain of α-glucosidase (P53341 whole entry): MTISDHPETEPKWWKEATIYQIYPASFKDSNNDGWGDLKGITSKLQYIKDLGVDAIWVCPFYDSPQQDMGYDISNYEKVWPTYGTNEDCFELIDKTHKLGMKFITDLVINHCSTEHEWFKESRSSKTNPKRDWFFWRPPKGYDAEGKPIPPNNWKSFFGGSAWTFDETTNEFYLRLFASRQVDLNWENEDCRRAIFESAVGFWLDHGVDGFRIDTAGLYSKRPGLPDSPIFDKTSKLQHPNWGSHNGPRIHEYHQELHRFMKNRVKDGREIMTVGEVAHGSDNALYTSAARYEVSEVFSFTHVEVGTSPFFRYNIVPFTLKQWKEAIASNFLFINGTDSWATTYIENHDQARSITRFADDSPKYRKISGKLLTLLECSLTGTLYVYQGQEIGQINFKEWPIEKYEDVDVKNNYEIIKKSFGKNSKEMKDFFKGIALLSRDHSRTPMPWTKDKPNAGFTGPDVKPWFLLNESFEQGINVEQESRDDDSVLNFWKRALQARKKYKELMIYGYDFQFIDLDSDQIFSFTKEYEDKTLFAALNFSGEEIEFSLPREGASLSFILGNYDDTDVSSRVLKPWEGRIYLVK

Molecule: CN(C)C(=N)N=C(N)N [metformin]
- SOD activity in liver (SOD in liver; WST-8 method, mean ± SD, n = 10 mice, NC 242.00 ± 66.43): 363.55 ± 18.09 U/mL
- increase of SOD activity in liver (SOD in liver; compared to the NC group): 50.23%
- Fasting serum insulin (serum insulin; ELISA): 29.82 ± 5.50^a mIU/L
- Insulin secretion index (serum insulin): 8.50 ± 1.12^a
- Insulin sensitivity index (serum insulin): 2.13 ± 0.13^a
- blood glucose values after gavage vs NC (in words) (blood glucose; 0.5 h and 2 h of gavage, compared with the NC group, p < 0.05): significantly reduce the blood glucose values
- AUC of blood glucose (in words) (blood glucose; EHCA 500-2,000 mg/kg or metformin 150 mg/kg, relative to NC group, p < 0.05, n = 10): markedly reduced the AUC values
- Blood glucose value, G1 (blood glucose; PC, metformin 150 mg/kg, gavage 3 d, fasting at the end of dosing, mean ± SD, n = 10 mice): 3.21 ± 0.20^a mmol/L
- Blood glucose value, 0.5 h (blood glucose; PC, metformin 150 mg/kg, gavage 3 d with soluble starch, 0.5 h, mean ± SD, n = 10 mice, listed as PC): 8.45 mmol/L
- Blood glucose value, 2 h (blood glucose; PC, metformin 150 mg/kg, gavage 3 d with soluble starch, 2 h, mean ± SD, n = 10 mice, listed as PC): 6.87 ± 1.14 mmol/L and 6.87 mmol/L
- Blood glucose value, G0 (blood glucose; PC, metformin 150 mg/kg, pre-dose fasting, mean ± SD, n = 10 mice): 4.94 ± 1.71^a mmol/L
- hypoglycemic rate (in words) (blood glucose; fasted mice, EHCA 500-2,000 mg/kg or metformin 150 mg/kg, 3 d, compared with the NC group, n = 10): significantly increased the hypoglycemic rate

Molecule: TDADHKF [TDADHKF, Thr-Asp-Ala-Asp-His-Lys-Phe]
- solubility [1]: good solubility

Molecule: LPLLR [Walnut-derived peptide LPLLR]
- inhibition of α-glucosidase (α-glucosidase; 2 mM, walnut-derived): 50.12%

Molecule: LRSELAAWSR [peptide from Spirulina platensis]
- IC50 (α-glucosidase; from Spirulina platensis): 134 µM
- IC50, inhibitory activity against α-glucosidase (α-glucosidase; from Spirulina platensis): 134.2 µg/mL

Molecule: KLNSTTEKLEE
- solubility [1]: good solubility

Molecule: USW: anti-diabetic peptide USW extracted from Spirulina (LRSELAAWSR)
- effect on insulin resistance / glucose metabolizing enzyme [2]: improve insulin resistance by significantly increasing activity of glucose metabolizing enzyme
